Data set [1] can be described thus: Controlled Release Soil Test (irrigated soil burial test). It counts as physicochemical. The source says:
To measure the relative solubilities of the products in soil, an irrigated soil burial test (“Controlled Release Soil Test”) was devised such that granules could be retrieved for measurement of their nitrogen content. The following is a description of the test.
Controlled Release Soil Test
Procedure for Controlled Release Soil Test
1. Screen the sample to obtain −6+7 Tyler mesh granules for the test.
2. Label a freezer container with the test description.
3. Place the freezer container on the 1200 g balance and tare out.
4. Place 300 g of potting soil with a 40% moisture content into the container and record the weight.
5. Over the soil place two (2) pieces of fiberglass mesh with 14 meshes to the inch and 1/16 inch openings.
6. Tare out the container with the soil and fiberglass mesh screens.
7. Spread 5 grams of −6+7 Tyler mesh granules over the screen in a single layer and record the weight.
8. Place a large square of fiberglass mesh over the granules, with a stainless steel screen cut to fit over it, so that the shape of the container has been mirrored.
9. Once this is shaped, tare out the container and add 150 g of soil and record the weight.
10. Repeat this process for each sample to be tested (in triplet if possible).
11. After all containers are completed, fill a mist spray bottle with de-ionized water and prime.
12. Tare out the weight of the primed mist bottle.
13. Mist 4 g of water into each container and immediately place the lid on container and seal.
14. After the fertilizer granules have been submerged in a humid soil environment for the allotted time (9 hours, 24 hours, and 3 days), the 150 g of soil is removed from the container.
15. Weigh to the nearest 0.0001 g in aluminum weigh pan and tare out.
16. Gently remove the two pieces of fiberglass mesh, which contains the remaining fertilizer granules.
17. Transfer the granules to the aluminum weigh pan and record the weight of the fertilizer granules.
18. Place the fertilizer granules in a laboratory oven to dry at low temperature (50° C.) for 13 hours.
19. Remove the dry sample from the oven, weigh to the nearest 0.0001 g and record weight.
20. Place the dry fertilizer sample into a 125 mL plastic sample bottle containing 20 g of de-ionized water.
21. Allow the sample to dissolve for 3 hours.
22. Place approximately 1 ml aliquot of the sample solution onto the sample stage of a refractometer (e.g., Abbe Refractometer).
23. Record the refractive index and temperature of the solution.
24. Calculate the percent urea retained from the original fertilizer sample.
To measure the slow or controlled release of the present compositions a Controlled Release Soil Test was employed, described as follows. […]

For data set [2], the system named is Hybrid “419” Bermudagrass. Briefly: Digital image analysis, measured color hue (Example 18). Set-up: unit not given here. To be noted: mean of 4 repetitions; fertilizer applied Apr. 19, 2004. It counts as in vivo. As to the method: (§1) The effect of nitrogen type was evaluated on the quality of hybrid bermudagrass grown under golf course conditions. Five fertilizer compositions were tested which included […] of the present invention, urea and Scotts Turf Builder. Nitrogen sources were applied individually at a rate of 1 lb N/1,000 ft^2 on Apr. 19, 2004. Field test plots were rated weekly for visual quality and scanned for digital image analysis.
(§2) Research was conducted on a fairway at Pleasant Valley Country Club in Little Rock, Arkansas. The hybrid “419” was bermudagrass was grown and was mowed at 0.5 inches height and clippings were not collected. Nitrogen sources were applied at a rate of 1 lb N/1,000 ft^2 on Apr. 19, 2004. Plots were 3 ft.×6 ft. Air temperatures on April 19th were 65-75° F. Turf quality ratings were made weekly by a single evaluator. Quality ratings considered turf growth and color. A rating of 6 was considered the minimum acceptable turf; a rating of 9 was not considered favorable from a management standpoint since growth was excessive and required frequent mowing. A visual rating of 8 would be considered excellent. Plots were also evaluated weekly using a digital image analysis. Digital images were taken with a Nikon CoolPix 880 camera with a shutter speed of 1/30 sec. and an aperture of f/2.8. Images were downloaded to a personal computer for subsequent analysis. Ratings were terminated when the nitrogen treated plots could not be visually separated from the control. Treatments consisted of 4 single plot replications. The experimental design was a completely randomized design.

The test system of data set [3] is Hybrid “419” Bermudagrass. Briefly: Visual turf quality rating, golf course fairway (Example 18). Type of data set: in vivo. How it is done:
as §1, §2

The mark [4] stands for this setting: 1 lb N/1,000 ft^2 applied Apr. 19, 2004.

With `N.N.O=S(=O)(O)O` [AS, (NH4)2SO4], in data set [1] (ammonium sulfate based granulation products, 9 hours), the “Control Release Soil Test 9 HR (nitrogen retained)” value was found to be 56.8%. Also, in data set [1] (ammonium sulfate based granulation products, 24 hours), the “Control Release Soil Test 24 HR (nitrogen retained)” value was determined as 30.0%. Also, the “Control Release Soil Test 3 DAY (nitrogen retained)” value in data set [1] (ammonium sulfate based granulation products, 3 days) is listed as 0%.
For `NC(N)=O` [Urea, Carbamide], the “time to complete dissolution in the Controlled Release Soil Test” value in data set [1] is not above 9 h. In addition, in data set [2], the “Hue Jun. 1, 2004” value was found to be 31.589; the “Hue Jun. 7, 2004” value was 27.101; the “Hue Jun. 14, 2004” value is listed as 28.324; the “Hue Jun. 21, 2004” value was 25.750. Moreover, in data set [2], the “Hue May 3, 2004” value came to 29.085; the “Hue May 10, 2004” value is given as 30.702; the “Hue May 17, 2004” value was found to be 30.920; the “Hue May 24, 2004” value was 29.943. For the same compound, in data set [3] (setting [4]), the “Visual Turf Quality Jun. 1, 2004” value was 7.7 cde; the “Visual Turf Quality Jun. 7, 2004” value is recorded as 7.7bcde; the “Visual Turf Quality Jun. 14, 2004” value is 7.6bcd; the “Visual Turf Quality Jun. 21, 2004” value stood at 7.5bc. Moreover, in data set [3] (setting [4]), the “Visual Turf Quality May 3, 2004” value turned out to be 7.5abcd; the “Visual Turf Quality May 9, 2004” value is given as 7.3bcd; the “Visual Turf Quality May 16, 2004” value is on record as 7.5abcd; the “Visual Turf Quality May 24, 2004” value worked out at 7.7bcdef. Besides, the “Visual Turf Quality Apr. 19, 2004” value in data set [3] (day of application, 1 lb N/1,000 ft^2, 6 = minimum acceptable, 8 excellent) turned out to be 6.5.

(Values after US20060148646A1, “Controlled release fertilizers containing calcium sulfate and processes for making same” (priority 2004, published 2006).)
